Results on 20 molecules are retold here after patent US11912686B2 (Gilead Sciences, Inc., priority 2020, dated 2024).

The target in the assay is human LPAR1 (Homo sapiens (Human), UniProt Q92633). Kind of assay: LPAR1 intracellular calcium mobilization assay (antagonist mode, FLIPR). The format is cell-based. The settings on record: CHO-K1 EDG2 cells expressing human LPAR1, LPA 18:2 at EC80 (100 nM), test compound 0.5 nM to 10 μM. A general note: Calcium assays in cells follow changes in intracellular calcium, usually with a dye or a luminescent sensor.
Sequence of human LPAR1 (Q92633 whole entry): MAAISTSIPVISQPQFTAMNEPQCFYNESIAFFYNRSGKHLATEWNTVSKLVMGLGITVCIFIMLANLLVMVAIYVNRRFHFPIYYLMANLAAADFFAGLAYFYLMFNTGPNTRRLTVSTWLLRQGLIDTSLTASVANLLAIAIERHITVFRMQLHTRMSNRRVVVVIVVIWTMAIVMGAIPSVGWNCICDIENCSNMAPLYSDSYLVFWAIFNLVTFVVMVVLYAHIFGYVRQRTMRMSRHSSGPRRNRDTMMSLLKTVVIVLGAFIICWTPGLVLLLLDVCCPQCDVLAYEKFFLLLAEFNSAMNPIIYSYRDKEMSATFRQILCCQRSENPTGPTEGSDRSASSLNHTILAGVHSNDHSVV
What is called EC50 is the concentration needed to bring the measured effect to its halfway point. Turning to `C[C@@H](OC(=O)Nc1c(-c2ccc(NC(=O)c3cc(C#N)no3)cn2)nnn1C)c1cc(F)cnc1F` [Compound 258, (R)-1-(2,5-difluoropyridin-3-yl)ethyl (4-(5-(3-cyanoisoxazole-5-carboxamido)pyridin-2-yl)-1-methyl-1H-1,2,3-triazol-5-yl)carbamate], the EC50 worked out at 19.3 nM. For `C[C@@H](OC(=O)Nc1c(-c2ccc(NC(=O)[C@H]3C[C@]4(CC4(F)F)C3)cn2)nnn1C)c1cccnc1Cl` [Compound 86, (R)-1-(2-chloropyridin-3-yl)ethyl (4-(5-((3S,5s)-1,1-difluorospiro[2.3]hexane-5-carboxamido)pyridin-2-yl)-1-methyl-1H-1,2,3-triazol-5-yl)carbamate], the EC50 amounted to 16.6 nM. As for `C[C@@H](OC(=O)Nc1c(-c2ccc(NC(=O)[C@H]3C[C@](O)(C#N)C3)cn2)nnn1C)c1cccnc1Cl` [Compound 140, (R)-1-(2-chloropyridin-3-yl)ethyl (4-(5-((1s,3S)-3-cyano-3-hydroxycyclobutane-1-carboxamido)pyridin-2-yl)-1-methyl-1H-1,2,3-triazol-5-yl)carbamate], the EC50 turned out to be 349 nM. In the case of `C[C@@H](OC(=O)Nc1c(-c2ccc(NC(=O)c3ccc(C(F)F)nc3)cn2)nnn1C)c1cc(F)cnc1F` [Compound 222, (R)-1-(2,5-difluoropyridin-3-yl)ethyl (4-(5-(6-(difluoromethyl)nicotinamido)pyridin-2-yl)-1-methyl-1H-1,2,3-triazol-5-yl)carbamate] it was 41.7 nM; in that of `C[C@@H](OC(=O)Nc1c(-c2ccc(NC(=O)C3CCC3C#N)cn2)nnn1C)c1cccnc1Cl` (stereo partly drawn) [Compound 142, (R)-1-(2-chloropyridin-3-yl)ethyl (4-(5-(2-cyanocyclobutane-1-carboxamido)pyridin-2-yl)-1-methyl-1H-1,2,3-triazol-5-yl)carbamate], 217 nM; in that of `C[C@@H](OC(=O)Nc1c(-c2ccc(NC(=O)c3ccc(C4(C#N)CC4)nc3)cn2)nnn1C)c1cc(F)cnc1F` [Compound 271, (R)-1-(2,5-difluoropyridin-3-yl)ethyl (4-(5-(6-(1-cyanocyclopropyl)nicotinamido)pyridin-2-yl)-1-methyl-1H-1,2,3-triazol-5-yl)carbamate], 229 nM. The figure for `CO[C@]1(C#N)C[C@H](C(=O)Nc2cnc(-c3nnn(C)c3NC(=O)O[C@H](C)c3cc(F)cnc3F)nc2)C1` [Compound 335, (R)-1-(2,5-difluoropyridin-3-yl)ethyl (4-(5-((1s,3S)-3-cyano-3-methoxycyclobutane-1-carboxamido)pyrimidin-2-yl)-1-methyl-1H-1,2,3-triazol-5-yl)carbamate] is 778 nM. In the case of `COC(=O)Nc1ccc(-c2nnn(C)c2NC(=O)O[C@H](CF)c2cccc(F)c2)nc1` [Compound 19, (S)-2-fluoro-1-(3-fluorophenyl)ethyl (4-(5-((methoxycarbonyl)amino)pyridin-2-yl)-1-methyl-1H-1,2,3-triazol-5-yl)carbamate] it was 276 nM. With `C[C@@H](OC(=O)Nc1c(-c2ccc(NC(=O)C3(C#N)CC3(C)C)cn2)nnn1C)c1cccnc1Cl` (stereo partly drawn) [Compound 146, (R)-1-(2-chloropyridin-3-yl)ethyl (4-(5-(1-cyano-2,2-dimethylcyclopropane-1-carboxamido)pyridin-2-yl)-1-methyl-1H-1,2,3-triazol-5-yl)carbamate], the EC50 came to 271 nM.

Regarding `C[C@@H](OC(=O)Nc1c(-c2ccc(NC(=O)c3c[nH]cn3)cn2)nnn1C)c1cccnc1Cl` [Compound 106, (R)-1-(2-chloropyridin-3-yl)ethyl (4-(5-(1H-imidazole-4-carboxamido)pyridin-2-yl)-1-methyl-1H-1,2,3-triazol-5-yl)carbamate], the EC50 stood at 1760 nM.

Regarding `C[C@@H](OC(=O)Nc1c(-c2ncc(NC(=O)C3(C#N)CC3)cc2F)nnn1C)c1cc(F)cnc1F` [Compound 336, (R)-1-(2,5-difluoropyridin-3-yl)ethyl (4-(5-(1-cyanocyclopropane-1-carboxamido)-3-fluoropyridin-2-yl)-1-methyl-1H-1,2,3-triazol-5-yl)carbamate], the EC50 is 258 nM.

For `C[C@@H](OC(=O)Nc1c(-c2ccc(NC(=O)c3ccnc(C#N)c3)cn2)nnn1C)c1cccnc1Cl` [Compound 100, (R)-1-(2-chloropyridin-3-yl)ethyl (4-(5-(2-cyanoisonicotinamido)pyridin-2-yl)-1-methyl-1H-1,2,3-triazol-5-yl)carbamate], the concentration for a half-maximal effect (EC50) was 90.8 nM.

Turning to `C[C@@H](OC(=O)Nc1c(-c2ccc(NC(=O)[C@@H]3C[C@H]3CF)cn2)nnn1C)c1cc(F)cnc1F` (mixture of isomers) [Compound 208, (R)-1-(2,5-difluoropyridin-3-yl)ethyl (4-(5-((1RS,2RS)-2-(fluoromethyl)cyclopropane-1-carboxamido)pyridin-2-yl)-1-methyl-1H-1,2,3-triazol-5-yl)carbamate], the EC50 amounted to 21.1 nM. The figure for `C[C@@H](OC(=O)Nc1c(-c2ccc(NC(=O)C3(C(F)(F)F)CC4(CCC4)C3)cn2)nnn1C)c1cccnc1Cl` [Compound 78, (R)-1-(2-chloropyridin-3-yl)ethyl (1-methyl-4-(5-(2-(trifluoromethyl)spiro[3.3]heptane-2-carboxamido)pyridin-2-yl)-1H-1,2,3-triazol-5-yl)carbamate] is 83.6 nM. As to `C[C@@H](OC(=O)Nc1c(-c2ccc(NC(=O)C3(CN)CCC3)cn2)nnn1C)c1cc(F)cnc1F` [Compound 303, (R)-1-(2,5-difluoropyridin-3-yl)ethyl (4-(5-(1-(aminomethyl)cyclobutane-1-carboxamido)pyridin-2-yl)-1-methyl-1H-1,2,3-triazol-5-yl)carbamate], the EC50 was found to be 565 nM. In the case of `C[C@@H](OC(=O)Nc1c(-c2ncc(NC(=O)[C@@H]3C[C@H]3C(F)(F)F)cn2)nnn1C)c1cc(F)cnc1Cl` [Compound 331, (R)-1-(2-chloro-5-fluoropyridin-3-yl)ethyl (1-methyl-4-(5-((1R,2R)-2-(trifluoromethyl)cyclopropane-1-carboxamido)pyrimidin-2-yl)-1H-1,2,3-triazol-5-yl)carbamate] it was 22.8 nM; in that of `CC(=O)NC12CC(C(=O)Nc3ccc(-c4nnn(C)c4NC(=O)O[C@H](C)c4cccnc4Cl)nc3)(C1)C2` [Compound 312], 1530 nM; in that of `C[C@@H](OC(=O)Nc1c(-c2ccc(NC(=O)C3(CF)CC3)cn2)nnn1C)c1cccnc1Cl` [Compound 110, (R)-1-(2-chloropyridin-3-yl)ethyl (4-(5-(1-(fluoromethyl)cyclopropane-1-carboxamido)pyridin-2-yl)-1-methyl-1H-1,2,3-triazol-5-yl)carbamate], 68.2 nM. As for `C[C@@H](OC(=O)Nc1c(-c2ccc(NC(=O)[C@]3(F)C[C@@H](O)C3)cn2)nnn1C)c1cccnc1Cl` [Compound 134, (R)-1-(2-chloropyridin-3-yl)ethyl (4-(5-((1s,3S)-1-fluoro-3-hydroxycyclobutane-1-carboxamido)pyridin-2-yl)-1-methyl-1H-1,2,3-triazol-5-yl)carbamate], the EC50 is 449 nM.

Turning to `C[C@@H](OC(=O)Nc1c(-c2cnc(NC(=O)c3ccc(C(F)F)nc3)cn2)nnn1C)c1cc(F)cnc1F` [Compound 321, (R)-1-(2,5-difluoropyridin-3-yl)ethyl (4-(5-(6-(difluoromethyl)nicotinamido)pyrazin-2-yl)-1-methyl-1H-1,2,3-triazol-5-yl)carbamate], the EC50 came out at 309 nM.
